Values of other authors as cited in PMC11238383, “A review on the cultivation, bioactive compounds, health-promoting factors and clinical trials of medicinal mushrooms Taiwanofungus camphoratus, Inonotus obliquus and Tropicoporus linteus” (Fungal Biology and Biotechnology, 2024).
Values after ≈ are worked out from the molar mass of the structure shown. Read-outs that look alike come from different tables or passages of the source.

Assays:
MDA-MB-231 cells = conditions: 10 µg/mL alone; ref [226]
[1] = tested on: inducible-nitric oxide synthase (iNOS) protein; parameters: method as in PMID 33434790; conditions: ref [107]
P. gingivalis = conditions: ref [131], [132], [133]
[2] = tested on: Oleic and palmitic acids (O/P) lipid accumulation-induced HepG2 cells; parameters: method as in Chiu et al. [138]; conditions: ref Chiu et al. [138]
MIN6N beta-cells = tested on: MIN6N beta-cells; parameters: method as in Lee et al. [235]; conditions: 10–70 uM, dose-dependent, ref Lee et al. [235]
[3] = tested on: Severe acute respiratory syndrome coronavirus 2 (SARS-CoV-2) virus-infected HepG2 cells; parameters: method as in Li et al. [35], [38]; conditions: ref Li et al. [35], [38]
[4] = for reducing power: ref [133]; for antioxidant activity: ref Lee et al. [226]
A549 and HeLa cell lines = conditions: ref [105]
aldose reductase = tested on: aldose reductase; parameters: method as in Lee et al. [136]; conditions: ref Lee et al. [136]
[5] = tested on: mouse melanoma and human lung cancer cells; parameters: method as in PMID 18239302; conditions: ref [135]
[6] = parameters: method as in PMID 31891260; conditions: ref [61]
U251 and MCF-7 = tested on: U251 and MCF-7; parameters: method as in PMID 31891260; conditions: ref [61]
[7] = parameters: method as in Zhang et al. [179]; conditions: DPPH assay; ref Zhang et al. [179]
[8] = tested on: AGS, MCF-7, and PC3 cancer cells; parameters: method as in PMID 32899899; conditions: ref [95]
NO = tested on: NO; parameters: method as in Park et al. [99]; conditions: ref Park et al. [99]
Influenza A H1N1 virus = tested on: Influenza A H1N1 virus; parameters: method as in Hwang et al. [13]; conditions: 10 uM; ref Hwang et al. [13]
H1N1 neuraminidase = conditions: ref [13]
[9] = tested on: human adenocarcinoma and human lung carcinoma cell lines; parameters: method as in doi:10.1016/j.jff.2020.104025; conditions: ref [97]
[10] = tested on: human cancer cells (U251, HL60, SW480, and A549); conditions: ref [63]
normal cells (LO2) = conditions: ref [63]
human glioblastoma cells = tested on: human glioblastoma cells; parameters: method as in Yang et al. [70]; conditions: in vitro; ref Yang et al. [70]
[11] = tested on: glioblastoma-xenografted mice; parameters: method as in Yang et al. [70]; conditions: in vivo; ref Yang et al. [70]
[12] = tested on: H2O2)-injured human neuroblastoma cells; parameters: method as in PMID 33084385; conditions: ref [108]
[13] = tested on: High-fat diet-induced C57BL/6J mice; parameters: method as in Lin et al. [175]; conditions: ref Lin et al. [175]
[14] = tested on: High-fat diet-induced C57BL/6J mice; parameters: method as in Lin et al. [175]; conditions: ref Lin et al. [175]; remark: listed apart in the source
[15] = tested on: Polyinosinic-polycytidylic acid (poly IC)-induced RAW 264.7 cells

Molecule: O=c1[nH]cc(F)c(=O)[nH]1 [5-fluorouracil]
- inhibition in cell growth (MDA-MB-231 cells): 12.6%

Molecule: inonotusol L
- interaction with iNOS protein [1]: capable of interacting with inducible-nitric oxide synthase (iNOS) protein

Molecule: C=C1CCCC(C)(C)[C@H]1[C@H]1O[C@@H]1/C(C)=C/C(=O)O [phellidene E]
- antimicrobial activity (P. gingivalis): did not show any detectable activities

Molecule: O=c1cc(O)cc(/C=C/c2ccc(O)c(O)c2)o1 [Hispidin, hispidin]
- lipid accumulation [2]: Significant reduction in lipid accumulation
- highest ROS scavenging activity (MIN6N beta-cells): 10–70 uM had notable reactive oxygen species (ROS) scavenging activity in a dose-dependent manner, with the highest activity being 65%
- highest ROS scavenging activity (MIN6N beta-cells; listed as hispidin): about 65%
- ACE2 gene expression [3]: Reduced the expression of angiotensin-converting enzyme 2 (ACE2) gene

Molecule: CC1=CC[C@@H]([C@@](C)(O)[C@@H]2C[C@H]2C(C)(C)O)CC1 [Phellilane L]
- antimicrobial activity (P. gingivalis): antimicrobial activities

Molecule: phellilane H
- reducing power [4]: weak reducing power
- antimicrobial activity (P. gingivalis): did not show any detectable activities

Molecule: C[C@H](/C=C/C=O)[C@H]1CC[C@@]2(C)C3=C(CC[C@]12C)[C@@]1(C)CC[C@H](O)C(C)(C)[C@@H]1CC3 [inonotusane C]
- cytotoxicity (A549 and HeLa cell lines): cytotoxic activities

Molecule: O=c1oc2c(O)c(O)cc3c(=O)oc4c(O)c(O)cc1c4c23 [ellagic acid]
- aldose reductase inhibition (aldose reductase): capable of inhibiting aldose reductase

Molecule: CC1=CC(=O)[C@H](c2c(O)cc(/C=C/c3ccc(O)c(O)c3)oc2=O)[C@@H](c2ccc(O)c(O)c2)O1 [davallialactone]
- aldose reductase inhibition (aldose reductase): capable of inhibiting aldose reductase

Molecule: O=C1C=C(/C=C/c2ccc(O)c(O)c2)OC12C(c1cc3oc(=O)c4cc(O)c(O)cc4c3c(=O)o1)=Cc1cc(O)c(O)cc12 (stereo not drawn) [phelligridin G]
- antiproliferative activity [5]: antiproliferative activity

Molecule: C=C(CC[C@@H](C)[C@H]1CC[C@H]2C3=C(C(=O)C[C@]12C)[C@@]1(C)CCC(=O)[C@@H](C)[C@@H]1C[C@H]3O)C(C)C [antcamphorol J]
- ROS scavenging [6]: ROS scavenging abilities

Molecule: O=c1oc(/C=C/c2ccc(O)c(O)c2)cc2oc(-c3ccc(O)c(O)c3)cc12 [Phellifuropyranone A]
- antiproliferative activity [5]: antiproliferative activity

Molecule: antcamphorol I
- ROS scavenging [6]: ROS scavenging abilities

Molecule: C/C=C(\CO)CC[C@@H](C)[C@H]1CC[C@H]2C3=C(C(=O)C[C@]12C)[C@@]1(C)CC[C@@H](O)[C@](C)(O)[C@@H]1C[C@@H]3O [antcamphorol C]
- cytotoxicity (U251 and MCF-7): cytotoxic activities

Molecule: C=C1CCCC(C)(C)C1/C=C/C(C)=C/C(=O)O (stereo not drawn) [(2E,4E)-γ-Ionylideneacetic acid]
- reducing power [4]: weak reducing power

Molecule: O=C(O)/C=C/c1ccc(O)c(O)c1 [Caffeic acid, caffeic acid]
- antioxidant activity [4]: Potent antioxidant activity, with higher antioxidant activity than BHA and Trolox in FRAP assay

Molecule: CC(C)(C)c1cc(O)ccc1O [tert-Butylhydroquinone (TBHQ), tert-Butylhydroquinone]
- EC50 [7]: 11.2 µg/mL (≈ 67.4 µM)

Molecule: CC(C)=CC[C@@H](O)[C@@H](C)[C@H]1CC[C@@]2(C)C3=C(CC[C@]12C)[C@@]1(C)CC[C@H](O)C(C)(C)[C@@H]1CC3 [Inotodiol]
- anti-proliferative activity [8]: anti-proliferative activities
- NO inhibition (NO): NO-inhibiting effects

Molecule: C=C1CCCC(C)(C)C1CC/C(C)=C/CO (single isomer, unassigned; (-)) [(-)-trans-γ-monocyclofarnesol]
- antimicrobial activity (P. gingivalis): antimicrobial effects

Molecule: CC(=O)C=Cc1ccc(O)c(O)c1 [4-(3,4-Dihydroxyphenyl)-3-buten-2-one]
- antioxidant activity [4]: Potent antioxidant activity, with higher antioxidant activity than BHA and Trolox in FRAP assay
- visible cytopathic effects (Influenza A H1N1 virus): 10 uM of both inhibited the formation of visible cytopathic effects, with IC50 values lower than Oseltamivir
- IC50 (H1N1 neuraminidase): 52 µM
- neuraminidase activity (H1N1 neuraminidase): inhibit neuraminidase activity

Molecule: C=C(C)[C@@H]1CC[C@]2(CO)CC[C@]3(C)[C@H](CC[C@@H]4[C@@]5(C)CC[C@H](O)C(C)(C)[C@@H]5CC[C@]43C)[C@@H]12 [betulin]
- proliferation [9]: inhibited the proliferation

Molecule: C=C(CC[C@@H](C)[C@H]1CC[C@@]2(O)C3=C(C(=O)C[C@]12C)[C@@]1(C)CCC(=O)[C@@H](C)[C@@H]1CC3=O)C(C)C(=O)OCC (stereo partly drawn) [Antcamphin Z]
- cytotoxicity [10]: potent cytotoxic activities
- effect on normal cells (normal cells (LO2)): no significant effects on normal cells

Molecule: O=C1O[C@H]([C@@H](O)CO)C(O)=C1O [vitamin C, ascorbic acid]
- EC50 [7]: 6 µg/mL (≈ 34.1 µM)

Molecule: C=C(C)[C@@H]1CC[C@]2(C(=O)O)CC[C@]3(C)[C@H](CC[C@@H]4[C@@]5(C)CC[C@H](O)C(C)(C)[C@@H]5CC[C@]43C)[C@@H]12 [betulinic acid]
- proliferation [9]: inhibited the proliferation

Molecule: CC(C)=CCC[C@@H](C(=O)O)[C@H]1CC[C@@]2(C)C3=C(CC[C@]12C)[C@@]1(C)CC[C@H](O)C(C)(C)[C@@H]1CC3 [trametenolic acid]
- anti-proliferative activity [8]: anti-proliferative activities
- NO inhibition (NO): NO-inhibiting effects

Molecule: C=C(CC[C@@H](C)[C@H]1CC[C@H]2C3=CC[C@H]4[C@H](C)[C@@H](O)CC[C@]4(C)C3=C[C@@H](O)[C@]12C)C(C)C [antcamphorol H]
- cytotoxicity (U251 and MCF-7): cytotoxic activities

Molecule: COC1=C(OC)C(=O)C(C)=CC1=O [coenzyme Q0, 2,3-dimethoxy-5-methyl-1,4-benzoquinone]
- apoptosis and autophagic cell death (human glioblastoma cells): inducing apoptosis and autophagic cell death
- apoptosis and autophagic cell death [11]: inducing apoptosis and autophagic cell death

Molecule: C=C1CC(O)CC(C)(C)C1/C=C/C(C)=C/C(=O)O (stereo not drawn) [(2E,4E)-4′-Hydroxy-γ-ionylideneacetic acid]
- reducing power [4]: weak reducing power

Molecule: CC(C)(O)[C@H]1CC[C@H]([C@H]2CC[C@@]3(C)C4=C(CC[C@]23C)[C@@]2(C)CC[C@H](O)C(C)(C)[C@@H]2CC4)[C@H]1O [inonotsutriol A]
- NO inhibition (NO): NO-inhibiting effects

Molecule: CC1=CC(=O)C2(O1)c1c(cc(/C=C/c3ccc(O)c(O)c3)oc1=O)OC2c1ccc(O)c(O)c1 (stereo not drawn) [inoscavin A]
- cell viability [12]: improve cell viabilities

Molecule: CCOC(=O)C1=C[C@@H](OC(CC)CC)[C@H](NC(C)=O)[C@@H](N)C1 [Oseltamivir, reference compound]
- IC50 (H1N1 neuraminidase): 64 µM

Molecule: C=C(CC[C@@H](C(=O)O)[C@H]1CC[C@@]2(C)C3=C(CC[C@]12C)[C@@]1(C)CC[C@H](O)C(C)(C)[C@@H]1CC3)C(C)C [Eburicoic acid]
- AMPK phosphorylation, Akt, membrane GLUT4 [13]: Increase AMPK phosphorylation, Akt, and membrane GLUT4 level
- PPAR-α expression in the liver [14]: Increased expression of PPAR-α in the liver which facilitated fatty acid oxidation and the reduction of lipid levels

Molecule: 4-acetylantroquinonol B
- IC50 ([15]; ref Tu et al. [186], read-out: IC50 of NO production): 0.57 µM
- NO production ([15]; ref [72]): significantly inhibited

Molecule: antcamphorol G
- ROS scavenging [6]: ROS scavenging abilities

Molecule: C=C1CCCC(C)(C)C1C=CC(C)=CC(=O)O (stereo not drawn) [( +)-γ-ionylideneacetic acid]
- antimicrobial activity (P. gingivalis): did not show any detectable activities

Molecule: inonotusol I
- interaction with iNOS protein [1]: capable of interacting with inducible-nitric oxide synthase (iNOS) protein

Molecule: antroquinonol Y
- cytotoxicity [10]: significant cytotoxic effects
- effect on normal cells (normal cells (LO2)): without affecting normal cells
